Laboratory results taken from ChEMBL document CHEMBL3621178, “Antidiabetic effect of novel benzenesulfonylureas as PPAR-γ agonists and their anticancer effect” (Bioorg Med Chem Lett, 2015).
Calls of active or inactive are those of the source. The calls are words filed in the database; no cut-off is given here.

Key:
[1] = system: NCI-H460; experiment: Growth inhibition of human NCI-H460 cells assessed as cell viability at 10 uM incubated for 48 hrs by sulforhodamine B assay; format: functional; settings: NCI-H460, 48 h, read-out: Activity
[2] = Growth inhibition of human HCC2998 cells assessed as cell viability at 10 uM incubated for 48 hrs by sulforhodamine B assay; format: functional; settings: HCC 2998, 48 h, read-out: Activity
[3] = Growth inhibition of human Hs 578T cells assessed as cell viability at 10 uM incubated for 48 hrs by sulforhodamine B assay; format: functional; settings: read-out: Activity
[4] = Growth inhibition of human RPMI8226 cells assessed as cell viability at 10 uM incubated for 48 hrs by sulforhodamine B assay; format: functional; settings: RPMI-8226, 48 h, read-out: Activity
[5] = system: 786-0; experiment: Growth inhibition of human 786-0 cells assessed as cell viability at 10 uM incubated for 48 hrs by sulforhodamine B assay; format: functional; settings: 786-0, 48 h, read-out: Activity
[6] = system: DU-145; experiment: Growth inhibition of human DU145 cells assessed as cell viability at 10 uM incubated for 48 hrs by sulforhodamine B assay; format: functional; settings: DU-145, 48 h, read-out: Activity
[7] = system: UACC-257; experiment: Growth inhibition of human UACC257 cells assessed as cell viability at 10 uM incubated for 48 hrs by sulforhodamine B assay; format: functional; settings: UACC-257, 48 h, read-out: Activity
[8] = system: NCI-H23; experiment: Growth inhibition of human NCI-H23 cells assessed as cell viability at 10 uM incubated for 48 hrs by sulforhodamine B assay; format: functional; settings: NCI-H23, 48 h, read-out: Activity
[9] = system: PC-3; experiment: Growth inhibition of human PC3 cells assessed as cell viability at 10 uM incubated for 48 hrs by sulforhodamine B assay; format: functional; settings: PC-3, 48 h, read-out: Activity
[10] = Growth inhibition of human RXF393 cells assessed as cell viability at 10 uM incubated for 48 hrs by sulforhodamine B assay; format: functional; settings: RXF 393, 48 h, read-out: Activity
[11] = system: T47D; experiment: Growth inhibition of human T47D cells assessed as cell viability at 10 uM incubated for 48 hrs by sulforhodamine B assay; format: functional; settings: read-out: Activity
[12] = system: SK-MEL-28; experiment: Growth inhibition of human SK-MEL-28 cells assessed as cell viability at 10 uM incubated for 48 hrs by sulforhodamine B assay; format: functional; settings: SK-MEL-28, 48 h, read-out: Activity
[13] = Growth inhibition of human LOXIMVI cells assessed as cell viability at 10 uM incubated for 48 hrs by sulforhodamine B assay; format: functional; settings: LOX IMVI, read-out: Activity
[14] = system: ACHN; experiment: Growth inhibition of human ACHN cells assessed as cell viability at 10 uM incubated for 48 hrs by sulforhodamine B assay; format: functional; settings: read-out: Activity
[15] = system: SN12C; experiment: Growth inhibition of human SN12C cells assessed as cell viability at 10 uM incubated for 48 hrs by sulforhodamine B assay; format: functional; settings: read-out: Activity
[16] = system: KM12; experiment: Growth inhibition of human KM12 cells assessed as cell viability at 10 uM incubated for 48 hrs by sulforhodamine B assay; format: functional; settings: KM12, 48 h, read-out: Activity
[17] = Growth inhibition of human SF295 cells assessed as cell viability at 10 uM incubated for 48 hrs by sulforhodamine B assay; format: functional; settings: SF-295, 48 h, read-out: Activity
[18] = system: UACC-62; experiment: Growth inhibition of human UACC62 cells assessed as cell viability at 10 uM incubated for 48 hrs by sulforhodamine B assay; format: functional; settings: UACC-62, 48 h, read-out: Activity
[19] = system: SF-268; experiment: Growth inhibition of human SF268 cells assessed as cell viability at 10 uM incubated for 48 hrs by sulforhodamine B assay; format: functional; settings: SF-268, 48 h, read-out: Activity
[20] = system: M14; experiment: Growth inhibition of human M14 cells assessed as cell viability at 10 uM incubated for 48 hrs by sulforhodamine B assay; format: functional; settings: M14, 48 h, read-out: Activity
[21] = system: SK-MEL-5; experiment: Growth inhibition of human SK-MEL-5 cells assessed as cell viability at 10 uM incubated for 48 hrs by sulforhodamine B assay; format: functional; settings: SK-MEL-5, 48 h, read-out: Activity
[22] = system: OVCAR-3; experiment: Growth inhibition of human OVCAR3 cells assessed as cell viability at 10 uM incubated for 48 hrs by sulforhodamine B assay; format: functional; settings: OVCAR-3, 48 h, read-out: Activity
[23] = system: MDA-MB-435; experiment: Growth inhibition of human MDA-MB-435 cells assessed as cell viability at 10 uM incubated for 48 hrs by sulforhodamine B assay; format: functional; settings: MDA-MB-435, 48 h, read-out: Activity
[24] = Growth inhibition of human HOP92 cells assessed as cell viability at 10 uM incubated for 48 hrs by sulforhodamine B assay; format: functional; settings: HOP-92, 48 h, read-out: Activity
[25] = system: MDA-MB-468; experiment: Growth inhibition of human MDA-MB-468 cells assessed as cell viability at 10 uM incubated for 48 hrs by sulforhodamine B assay; format: functional; settings: MDA-MB-468, 48 h, read-out: Activity
[26] = system: U-251; experiment: Growth inhibition of human U251 cells assessed as cell viability at 10 uM incubated for 48 hrs by sulforhodamine B assay; format: functional; settings: U-251, 48 h, read-out: Activity
[27] = system: CCRF-CEM; experiment: Growth inhibition of human CCRF-CEM cells assessed as cell viability at 10 uM incubated for 48 hrs by sulforhodamine B assay; format: functional; settings: read-out: Activity
[28] = system: SW-620; experiment: Growth inhibition of human SW620 cells assessed as cell viability at 10 uM incubated for 48 hrs by sulforhodamine B assay; format: functional; settings: SW-620, 48 h, read-out: Activity
[29] = system: OVCAR-8; experiment: Growth inhibition of human OVCAR8 cells assessed as cell viability at 10 uM incubated for 48 hrs by sulforhodamine B assay; format: functional; settings: OVCAR-8, 48 h, read-out: Activity
[30] = system: OVCAR-4; experiment: Growth inhibition of human OVCAR4 cells assessed as cell viability at 10 uM incubated for 48 hrs by sulforhodamine B assay; format: functional; settings: OVCAR-4, 48 h, read-out: Activity
[31] = system: MDA-MB-231; experiment: Growth inhibition of human MDA-MB-231 cells assessed as cell viability at 10 uM incubated for 48 hrs by sulforhodamine B assay; format: functional; settings: MDA-MB-231, 48 h, read-out: Activity
[32] = system: NCI-H322M; experiment: Growth inhibition of human NCI-H322M cells assessed as cell viability at 10 uM incubated for 48 hrs by sulforhodamine B assay; format: functional; settings: read-out: Activity
[33] = system: UO-31; experiment: Growth inhibition of human UO31 cells assessed as cell viability at 10 uM incubated for 48 hrs by sulforhodamine B assay; format: functional; settings: UO-31, 48 h, read-out: Activity
[34] = Growth inhibition of human SF539 cells assessed as cell viability at 10 uM incubated for 48 hrs by sulforhodamine B assay; format: functional; settings: SF-539, 48 h, read-out: Activity
[35] = Growth inhibition of human NCI-ADR-RES cells assessed as cell viability at 10 uM incubated for 48 hrs by sulforhodamine B assay; format: functional; settings: read-out: Activity
[36] = system: Rattus norvegicus; experiment: Antidiabetic activity in Wistar rat assessed as reduction in blood glucose level at 30 mg/kg, po dosed 30 mins before glucose challenge and measured 30 and 60 mins post glucose challenge by OGTT method; format: functional, organism-based

Structure (SMILES)	viability at 10 µM [1]	viability at 10 µM [2]	viability at 10 µM [3]	viability at 10 µM [4]	viability at 10 µM [5]	viability at 10 µM [6]	viability at 10 µM [7]	viability at 10 µM [8]	viability at 10 µM [9]	viability at 10 µM [10]	viability at 10 µM [11]	viability at 10 µM [12]	viability at 10 µM [13]	viability at 10 µM [14]	viability at 10 µM [15]	viability at 10 µM [16]	viability at 10 µM [17]	viability at 10 µM [18]	viability at 10 µM [19]	viability at 10 µM [20]	also measured
COc1ccc(NC(=O)NS(=O)(=O)c2ccc(N3N=C(c4cc5ccccc5oc4=O)CC3c3ccc(N(C)C)cc3)cc2)cc1 (stereo unspecified)	105%	104%	84.9%	98%	96.9%	111%	96.3%	85.1%	97.6%	105%	87.7%	101%	95.6%	89.7%	97.1%	101%	83.8%	88.6%	98.8%	95.6%	viability at 10 µM [21]: 98.4%; viability at 10 µM [22]: 102%; viability at 10 µM [23]: 102%; viability at 10 µM [24]: 79.8%; viability at 10 µM [25]: 104%; viability at 10 µM [26]: 91.8%; viability at 10 µM [27]: 107%; viability at 10 µM [28]: 103%; viability at 10 µM [29]: 94.9%; viability at 10 µM [30]: 92.4%; viability at 10 µM [31]: 97%; viability at 10 µM [32]: 99.9%; viability at 10 µM [33]: 86%; viability at 10 µM [34]: 91.5%; viability at 10 µM [35]: 100%
CN(C)c1ccc(C2CC(c3cc4ccccc4oc3=O)=NN2c2ccc(S(=O)(=O)NC(=O)NCc3ccccc3)cc2)cc1 (stereo unspecified)	65.3%	90%	67.1%	66.1%	68.4%	84.9%	64.9%	67.3%	67.1%	85.4%	64%	57.4%	79.8%	58.2%	77.8%	72.9%	61.7%	37.6%	87.9%	55%	Activity [36]: Active; viability at 10 µM [21]: 62.7%; viability at 10 µM [22]: 82.2%; viability at 10 µM [23]: 65.5%; viability at 10 µM [24]: 49.1%; viability at 10 µM [25]: 68.2%; viability at 10 µM [26]: 67.8%; viability at 10 µM [27]: 72%; viability at 10 µM [28]: 73.1%; viability at 10 µM [29]: 71.7%; viability at 10 µM [30]: 52.8%; viability at 10 µM [31]: 78.1%; viability at 10 µM [32]: 79.6%; viability at 10 µM [33]: 44.9%; viability at 10 µM [34]: 70.8%; viability at 10 µM [35]: 83.1%
O=C(NCc1ccccc1)NS(=O)(=O)c1ccc(N2N=C(c3cc4ccccc4oc3=O)CC2c2cccs2)cc1 (stereo unspecified)	107%	106%	99.6%	105%	95.3%	110%	104%	101%	108%	123%	97.4%	97.4%	97.7%	102%	98.4%	105%	93.8%	102%	103%	98.8%	viability at 10 µM [21]: 101%; viability at 10 µM [22]: 106%; viability at 10 µM [23]: 103%; viability at 10 µM [24]: 94.2%; viability at 10 µM [25]: 110%; viability at 10 µM [26]: 102%; viability at 10 µM [27]: 108%; viability at 10 µM [28]: 108%; viability at 10 µM [29]: 103%; viability at 10 µM [30]: 98.2%; viability at 10 µM [31]: 103%; viability at 10 µM [32]: 106%; viability at 10 µM [33]: 95.7%; viability at 10 µM [34]: 103%; viability at 10 µM [35]: 103%
